Source: US20240189315A1, “Cyclic Pyridine Derivatives as cGAS Inhibitors” (Boehringer Ingelheim International GmbH, priority 2022, published 2024)
pIC50: −log10 of the molar value. Read-outs that look alike come from different tables or passages of the source.

Assays:
[1] = molecular target: T1, cellular cGAS activity in baculovirus-stimulated THP1-Dual cells (Homo sapiens (Human), UniProt Q8N884); conditions: Table 4; compounds and methyl ester prodrugs of PCT/EP2022/062480 and PCT/EP2022/062496; read-out: THP1(vir) IC50; cited from earlier work
T1 sequence (Q8N884 whole entry): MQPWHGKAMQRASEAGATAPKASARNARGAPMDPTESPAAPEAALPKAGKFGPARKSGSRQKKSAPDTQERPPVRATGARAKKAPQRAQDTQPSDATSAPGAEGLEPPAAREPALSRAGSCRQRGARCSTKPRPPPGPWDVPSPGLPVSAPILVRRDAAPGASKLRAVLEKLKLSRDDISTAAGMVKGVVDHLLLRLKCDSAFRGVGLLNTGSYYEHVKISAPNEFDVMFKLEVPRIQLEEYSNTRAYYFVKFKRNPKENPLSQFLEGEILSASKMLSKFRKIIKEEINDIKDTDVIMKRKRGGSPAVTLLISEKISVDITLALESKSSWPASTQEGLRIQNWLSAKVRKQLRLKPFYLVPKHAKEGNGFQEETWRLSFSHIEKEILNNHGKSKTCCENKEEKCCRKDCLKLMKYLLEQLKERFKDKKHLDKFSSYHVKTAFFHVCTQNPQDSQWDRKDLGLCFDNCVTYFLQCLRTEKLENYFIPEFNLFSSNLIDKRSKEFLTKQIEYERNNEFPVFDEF

[2] = test system: pathway directly downstream of cGAS in cGAMP-stimulated THP1-Dual cells; conditions: Table 4; compounds and methyl ester prodrugs of PCT/EP2022/062480 and PCT/EP2022/062496; cited from earlier work
[3] = molecular target: T2, cellular cGAS activity in dsDNA-stimulated human whole blood (Homo sapiens (Human), UniProt Q8N884); conditions: Table 4; compounds and methyl ester prodrugs of PCT/EP2022/062480 and PCT/EP2022/062496; read-out: hWB IC50; cited from earlier work
T2 sequence (Q8N884 whole entry): as above

[4] = molecular target: Human cGAS enzyme (Homo sapiens (Human), UniProt Q8N884); assay: Human cGAS enzyme assay (hcGAS IC50, in vitro), cGAMP formation by RapidFire MS; type: biochemical;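 note: recombinant human cGAS activated by 45 bp dsDNA with 30 µM each ATP and GTP, 90 min, cGAMP vs cyclic-di-GMP standard by MS, 8-point titration from 10 µM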
Sequence of Human cGAS enzyme (Q8N884 whole entry): as above

[5] = molecular target: T1, cellular cGAS activity in baculovirus-stimulated THP1-Dual cells; assay: Human cGAS cell assay (THP1(vir) IC50): IFN induction in virus-stimulated THP1-Dual cells, IRF Lucia luciferase reporter; type: cell-based;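 note: Eight-point dilution series starting at 10 µM, 1% DMSO, 18 h at 37 °C, luminescence read-out, virus-free wells as 0% and DMSO-treated virus-stimulated wells as 100%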
[6] = test system: pathway directly downstream of cGAS in cGAMP-stimulated THP1-Dual cells; assay: cGAMP stimulated counter cell assay (THP1(cGAMP) IC50): IFN induction in cGAMP-stimulated THP1-Dual cells; type: cell-based, human; conditions: for pIC50: Homo sapiens, THP1-Dual; for Ratio THP(cGAMP) IC50/ THP(vir) IC50: selectivity for cGAS inhibition
Excerpt: 6.2 Method: Human cGAS Cell Assay and cGAMP Stimulated Counter Cell Assay (THP1(vir) IC50 and THP1(cGAMP) IC50)
THP1-Dual™ cells (InvivoGen #thpd-nfis) expressing IRF dependent Lucia luciferase reporter were used as basis for both assays. For the detection of cellular cGAS activity cells were stimulated by a baculovirus (pFastbac-1, Invitrogen, no coding insert) infection that delivers the cGAS enzyme stimulating double-stranded DNA (measurement of THP1(vir) IC50).
For the counter assay, cells were stimulated by cGAMP (SigmaAldrich #SML1232) to activate the identical pathway independent and directly downstream of cGAS (measurement of THP1(cGAMP) IC50). Pathway activity was monitored by measuring the Lucia luciferase activity induced by either DNA stimulated cGAS enzyme activity (measurement of THP1(vir) IC50) or by cGAMP directly (measurement of THP1(cGAMP) IC50, counter assay).
Compounds were delivered in 10 mM DMSO solution, serially diluted and transferred to the 384 well assay plate (Greiner #781201) using an Echo acoustic dispenser. Typically, 8 concentrations were used with the highest concentration at 10 μM in the final assay volume followed by ˜1:5 dilution steps. DMSO concentration was set to 1% in the final assay volume. The 384 well assay plate contained 21 test compounds (column 1-22), and DMSO in column 23 and 24.
Cells, cultivated according to manufacturer conditions, were harvested by centrifugation at 300 g/10 min and were then resuspended and diluted to 1.66E5 cells/ml in fresh cell culture medium (RPMI 1640 (Gibco #A10491-01), 10% FCS (Gibco #10500), 1× GlutaMax (Gibco #35050-061), 1× Pen/Strep solution (Gibco #15140-122), 100 μg/ml Normocin (InvivoGen #ant-nr), 100 μg/ml Zeocin (InvivoGen #ant-zn), 10 μg/ml Blasticidin S (Life Technologies #A11139-03)). The baculovirus solution was then added 1:200 (have varied according to virus batch) to the cells (measurement of THP1(vir) IC50). […] 30 μL of the cell/virus-mix were added to each well of the compound plate from column 1-23 via MultiDrop Combi dispenser (5000 cells/well). In column 24, 30 μl/5000 cells/well without virus were added as a low control.
The plates were then incubated for 18 h at 37° C. in a humidified incubator.
Following that, 15 μL of QuantiLuc detection reagent (InvivoGen #rep-qlcg5) were added to each well using a MultiDrop Combi. Measurement was done immediately after the addition using an EnVision reader (US-luminescence read-mode).
Data Evaluation and Calculation:
For data evaluation and calculation, the measurement of the low control was set as 0% control and the measurement of the high control was set as 100% control. The IC50 values were calculated using the standard 4 parameter logistic regression formula. Calculation: [y=(a−d)/(1+(x/c)^b)+d], a=low value, d=high value; x=conc M; c=IC50 M; b=slope

[7] = molecular target: T2, cellular cGAS activity in dsDNA-stimulated human whole blood; assay: Human whole blood assay (hWB IC50): IFNα2a production after dsDNA transfection; type: cell-based;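 note: IFNα-2a in plasma measured by MSD electrochemiluminescence immunoassay after 22 h at 37 °C, 8-point dilution series from 10 µM top concentration, DMSO wells as controls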
[8] = Table 2, compounds from WO 2020/142729 re-tested in the applicant's assay
[9] = Table 2, compounds from WO 2020/142729, read-out: THP1(vir) IC50
[10] = Table 2, compounds from WO 2020/142729, read-out: THP1(cGAMP) IC50
[11] = Table 2, compounds from WO 2020/142729
[12] = Table 1, virus-stimulated THP1 cells, read-out: THP(vir) IC50
[13] = Table 1, cGAMP-stimulated THP1 cells, read-out: THP(cGAMP) IC50
[14] = Table 1, dsDNA-stimulated human whole blood

SMILES	pIC50 ([4]; Table 1)	pIC50 [5, 12]	pIC50 [7, 14]	pIC50 [1]	pIC50 [2]	pIC50 [3]	pIC50 [6, 13]	Ratio THP(cGAMP) IC50/ THP(vir) IC50 ([6]; Table 1)	other results
CO[C@]1(c2cc(Cl)cnc2O[C@H]2C[C@@H](C(=O)O)N(c3nc(C(F)F)nc4c3oc3ccccc34)C2)CC(C)(C)S(=O)(=O)C[C@@H]1C [Ex. 1.05 of PCT/EP2022/062496]	–	–	–	7.36	4.88	6.87	–	–	–
C[C@@H]1N(c2cc(Br)cnc2O[C@H]2C[C@@H](C(=O)O)N(c3nc(C(F)(F)F)nc4c3oc3ccccc34)C2)CCOC12COC2 [Ex. 1.10 of PCT/EP2022/062480]	–	–	–	7.04	4.79	7.48	–	–	–
C#Cc1cnc(O[C@H]2C[C@@H](C(=O)O)N(c3nc(C(F)(F)F)nc4c3oc3ccccc34)C2)c(N2CCOC3(COC3)[C@@H]2C)c1 [Ex. 1.12 of PCT/EP2022/062480]	–	–	–	8.15	4.92	7.82	–	–	–
C[C@H]1CS(=O)(=O)CC[C@]1(F)c1cc(Cl)cnc1O[C@H]1C[C@@H](C(=O)O)N(c2nc(C(F)F)nc3c2oc2ccccc23)C1 [Ex. 1.13 of PCT/EP2022/062496]	–	–	–	8.22	4.65	8.22	–	–	–
C#Cc1cnc(O[C@H]2C[C@@H](C(=O)O)N(c3nc(C(F)(F)F)nc4c3oc3ccccc34)C2)c([C@@]2(F)CCS(=O)(=O)C[C@@H]2C)c1 [Ex. 2.12 of PCT/EP2022/062496]	–	–	–	8.10	4.66	8.10	–	–	–
COc1ncccc1-c1cnc(O[C@H]2C[C@@H](C(=O)O)N(c3nc(C(F)(F)F)nc4c3oc3ccccc34)C2)c(N2CCOC3(COC3)[C@@H]2C)c1 [Ex. 3.14 of PCT/EP2022/062480]	–	–	–	8.00	5.11	7.59	–	–	–
C[C@@H]1N(c2cccnc2O[C@H]2C[C@@H](C(=O)O)N(c3nc(C(F)F)nc4c3oc3ccccc34)C2)CCOC12COC2 [Ex. 4.04 of PCT/EP2022/062480]	–	–	–	6.41	< 4.78	7.11	–	–	–
Cc1nc(N2C[C@@H](CC(=O)Nc3ccncc3)C[C@H]2C(=O)O)c2oc3ccccc3c2n1 [Example 28]	–	–	–	–	–	–	–	–	pIC50 [4, 8]: 6.20; pIC50 [5, 9]: < 4.49; pIC50 [6, 10]: < 4.77; pIC50 [7, 11]: < 5.00
COC(=O)[C@@H]1C[C@H](Oc2ncccc2N2CCOC3(COC3)[C@@H]2C)CN1c1nc(C(F)F)nc2c1oc1ccccc12 [P01 of PCT/EP2022/062480]	–	–	–	6.45	4.58	5.88	–	–	–
CC(C)(C(=O)N[C@H]1C[C@@H](C(=O)O)N(c2nc(C(F)(F)F)nc3c2oc2ccccc23)C1)c1cn[nH]c1 [compound 58]	–	–	–	–	–	–	–	–	pIC50 [4, 8]: 6.49; pIC50 [5, 9]: 4.68; pIC50 [6, 10]: 4.64; pIC50 [7, 11]: < 5.00

More lines, main results first:

pIC50 ([4]; Table 1)	pIC50 [5, 12]	pIC50 [7, 14]	SMILES	pIC50 [1]	pIC50 [2]	pIC50 [3]	pIC50 [6, 13]	Ratio THP(cGAMP) IC50/ THP(vir) IC50 ([6]; Table 1)	other results
7.85	7.24	7.66	CC#Cc1cnc2c(c1)[C@@]1(F)CCN(C[C@@H]1C)C(=O)COCCCCc1nc(c3oc4ccccc4c3n1)N1C[C@H](C[C@H]1C(=O)O)O2 [Example 29, (1R,9S,11S,34S)-1-fluoro-34-methyl-31-oxo-4-(prop-1-yn-1-yl)-8,15,29-trioxa-6,12,23,32,37-penta-azaheptacyclo[30.2.2.1^9,12.1^13,24.0^2,7.0^14,22.0^16,21]octatriaconta-2(7),3,5,13,16(21),17,19,22,24(37)-nonaene-11-carboxylic acid]	–	–	–	5.66	39	–
8.15	7.15	7.66	C[C@H]1CN2CC[C@]1(F)c1cc(Cl)cnc1O[C@H]1C[C@@H](C(=O)O)N(C1)c1nc(nc3c1oc1cc(F)ccc13)CCCCOCC2=O [Example 30]	–	–	–	5.33	67	–
8.15	8.52	8.30	C[C@H]1CN2CC[C@]1(F)c1cc(Cl)cnc1O[C@H]1C[C@@H](C(=O)O)N(C1)c1nc(nc3c1oc1ccccc13)C(F)(F)CCCOCC2=O [Example 31]	–	–	–	5.14	3002	–
8.30	8.10	8.05	C[C@H]1CN2CC[C@]1(F)c1cc(Cl)cnc1O[C@H]1C[C@@H](C(=O)O)N(C1)c1nc(nc3c1oc1cc(F)ccc13)C(F)(F)CCCOCC2=O [Example 32]	–	–	–	< 5.00	1190	–
8.30	8.52	7.80	C[C@H]1CN2CC[C@]1(F)c1cc(Cl)cnc1O[C@H]1C[C@@H](C(=O)O)N(C1)c1nc(nc3c1oc1cc(Cl)ccc13)C(F)(F)CCCOCC2=O [Example 33]	–	–	–	5.19	2085	–
8.10	7.44	7.39	C[C@H]1CN2CC[C@]1(F)c1cc(Cl)cnc1O[C@H]1C[C@@H](C(=O)O)N(C1)c1nc(nc3c1oc1ccccc13)CCOCCOC2=O [Example 34, (1R,9S,11S,34S)-4-chloro-1-fluoro-34-methyl-31-oxo-8,15,27,30-tetraoxa-6,12,23,32,37-pentaaza-heptacyclo[30.2.2.1^9,12.1^13,24.0^2,7.0^14,22.0^16,21]octatriaconta-2,4,6,13(37),14(22),16(21),17,19,23-nonaene-11-carboxylic acid]	–	–	–	4.80	450	–
8.15	6.89	7.10	C[C@H]1CN2CC[C@]1(F)c1cc(Cl)cnc1O[C@H]1C[C@@H](C(=O)O)N(C1)c1nc(nc3c1oc1ccccc13)CCCCCC2=O [Example 36]	–	–	–	< 5.00	80	–
8.52	7.92	7.96	C[C@H]1CN2CC[C@]1(F)c1cc(Cl)cnc1O[C@H]1C[C@@H](C(=O)O)N(C1)c1nc(nc3c1oc1ccccc13)CCCOCC2=O [Example 37, (1R,9S,11S,33S)-4-chloro-1-fluoro-33-methyl-30-oxo-8,15,28-trioxa-6,12,23,31,36-pentaaza-heptacyclo[29.2.2.1^9,12.1^13,24.0^2,7.0^14,22.0^16,21]heptatriaconta-2,4,6,13(36),14(22),16(21),17,19,23-nonaene-11-carboxylic acid]	–	–	–	4.96	884	–
8.52	8.52	8.10	C[C@H]1CN2CC[C@]1(F)c1cc(Cl)cnc1O[C@H]1C[C@@H](C(=O)O)N(C1)c1nc(nc3c1oc1ccccc13)CCOCCC2=O [Example 38, (1R,9S,11S,33S)-4-chloro-1-fluoro-33-methyl-30-oxo-8,15,27-trioxa-6,12,23,31,36-pentaaza-heptacyclo[29.2.2.1^9,12.1^13,24.0^2,7.0^14,22.0^16,21]heptatriaconta-2,4,6,13(36),14(22),16(21),17,19,23-nonaene-11-carboxylic acid]	–	–	–	< 5.00	2964	–
